The text below walks through data of patent US3959252A, “Alkamoyl-josamycins” (Yamanouchi Pharmaceutical Co., Ltd., priority 1968, dated 1976).

Series [1] has as its system Salmonella typhi H 901W. Description: MIC, agar dilution on nutrient agar. The format is cell-based. The conditions noted are these: Salmonella enterica, read-out: Minimum Inhibitory Concentration (MIC). The method, then: (§1) Experimental procedure: Minimum inhibitory concentrations (MIC) were determined as to Josamycin, monoacetyl-josamycin-1, monoacetyl-josamycin-2and diacetyl-josamycin, according to usual agar dilution method on nutrient agar.

In series [2] the test system is Bacillus subtilis ATCC 6635. Description: MIC, agar dilution on nutrient agar. The format is cell-based. The following applies: ATCC6635, acetylated Josamycins as Josamycin equivalent, read-out: Minimum Inhibitory Concentration (MIC). The protocol: as §1
(In agar dilution, organisms are placed on agar that contains the substance at set levels.)

The test system of series [3] is Shigella flexneri 2a 1675. Description: MIC, agar dilution on nutrient agar. The format is cell-based. The following applies: 2A1675, acetylated Josamycins as Josamycin equivalent, read-out: Minimum Inhibitory Concentration (MIC). The method, then: as §1
In series [4] the test system is Staphylococcus aureus PC, SM, TC, EM, SA resistant. Description: MIC, agar dilution on nutrient agar. The format is cell-based. The conditions noted are these: acetylated Josamycins as Josamycin equivalent, read-out: Minimum Inhibitory Concentration (MIC). The method, then: as §1
The test system of series [5] is Staphylococcus aureus PC, CP, TC, SA resistant. The series can be described thus: MIC, agar dilution on nutrient agar. The class given is cell-based. The following applies: acetylated Josamycins as Josamycin equivalent, read-out: Minimum Inhibitory Concentration (MIC). The method, then:
as §1

For series [6], the system named is Mycobacterium 607. Description: MIC, agar dilution on nutrient agar. The class given is cell-based. The conditions noted are these: acetylated Josamycins as Josamycin equivalent, read-out: Minimum Inhibitory Concentration (MIC). The method, then:
as §1

The subject of series [7] is Escherichia coli PCI 602. Description: MIC, agar dilution on nutrient agar. The class given is cell-based. The conditions noted are these: PCI602, acetylated Josamycins as Josamycin equivalent, read-out: Minimum Inhibitory Concentration (MIC). The protocol: as §1
Series [8] has as its system Staphylococcus aureus FDA 209P. Description: MIC, agar dilution on nutrient agar. The class given is cell-based. The following applies: FDA209P, acetylated Josamycins as Josamycin equivalent, read-out: Minimum Inhibitory Concentration (MIC). The protocol: as §1
The test system of series [9] is Staphylococcus aureus FDA 209P Smith. Description: MIC, agar dilution on nutrient agar. The conditions noted are these: FDA209P, acetylated Josamycins as Josamycin equivalent, read-out: Minimum Inhibitory Concentration (MIC). The format is cell-based. The method, then:
as §1

Series [10] in a line: pKa' measurement. The class given is physicochemical. The following applies: 40% aqueous methanol. An excerpt:
4. pKa' less than 6 (measured in 40% aqueous methanol)
4. pKa 7.03 (measured in 40% aqueous methanol)

Series [11] is described as follows: Solubility.
In series [12] the test system is Staphylococcus aureus No. 226 strain. The series can be described thus: Protection of mice from subcutaneous Staphylococcal infection. The conditions noted are these: 48 hours, control 88.2. The class given is in vivo. The method, then:
Experimental procedure: Groups of 5 mice were inoculated subcutaneously in the back with 10^8 cells (in 0.1 ml volume) of Staphylococcus aureus No. 226 strain. Immediately after the infection, Josamycin or monoacetyl-josamycin-2 was administered orally. To the control group, no medicament was administered. After 48 hours, the animals were killed. The skin of the back of each mouse was cut open, and the size of subcutaneous abscess was measured.

In series [13] the test system is Staphylococcus aureus Smith. The series can be described thus: Protection of mice from systemic staphylococcal infection. The class given is in vivo. The conditions noted are these: 5 mice, control 0 of 10. An excerpt:
Experimental procedure: Group of 5 mice were inoculated intraperitoneally with 1000 MLD (containing 5% of mucin added) of Staphylococcus aureus Smith. Immediately after the infection, a single dose of each antibiotic was given orally. The survival of mice after 7 days was observed. The group for control (10 mice) was given no antibiotic.

For series [14] the following is noted: titrated in aqueous methanol; base form; cited from earlier work.
For series [15] the following is noted: Josamycin base, as described; cited from earlier work.
In series [16] the test system is staphylococci resistant to streptothricin, telomycin, streptomycin, chloramphenicol, or penicillin. The following applies: cited from earlier work.
[17] abbreviates: 200 mg/kg oral (as Josamycin equivalent).
The mark [18] stands for this setting: 50 mg/kg oral single dose (as Josamycin equivalent).
Where [19] appears, read: 150 mg/kg oral single dose (as Josamycin equivalent).
Where [20] appears, read: 500 mg/kg oral single dose (as Josamycin equivalent).

Where two headings read alike, the source gives them in different places.

As to `COC1C(OC(C)=O)CC(=O)OC(C)C/C=C/C=C/C(OC(C)=O)C(C)CC(CC=O)C1OC1OC(C)C(OC2CC(C)(O)C(OC(=O)CC(C)C)C(C)O2)C(N(C)C)C1OC(C)=O` (centres unmarked) [Diacetyl-josamycin, diacetyl-josamycin], the MIC is above 100 µg/mL in series [1]; 0.39 µg/mL in series [2]; 50 µg/mL in [3]; above 100 µg/mL in [4]; 0.78 µg/mL in [5]; 3.1 µg/mL in [6]. Moreover, the MIC in [7] is above 100 µg/mL; in [8] it was 0.39 µg/mL; in [9] it was 0.39 µg/mL. In addition, in series [10], the pKa (commonly the negative logarithm of the acid dissociation constant) was below 6.
Turning to `COC1C(OC(C)=O)CC(=O)OC(C)C/C=C/C=C/C(OC(C)=O)C(C)CC(CC=O)C1OC1OC(C)C(OC2CC(C)(O)C(OC(=O)CC(C)C)C(C)O2)C(N(C)C)C1O` (centres unmarked) [Monoacetyl-josamycin-2, monoacetyl-josamycin-2], the MIC in series [1] is above 100 µg/mL; in series [2], 0.39 µg/mL; in series [3] it was 50 µg/mL; in [4] it was above 100 µg/mL; in [5], 0.78 µg/mL; in [6] it was 3.1 µg/mL. In addition, the figures for the MIC in series [7], in series [8] and in series [9] were above 100 µg/mL, 0.39 µg/mL and 0.39 µg/mL, respectively. Also, the pKa in [10] (read-out: pKa') worked out at 7.03. For the same molecule, the “Solubility (easily soluble solvents)” value in series [11] is “easily soluble in acetone, chloroform, methanol, ethyl acetate and ethylether”. Besides, the “Solubility (hardly soluble solvents)” value in [11] is “hardly soluble in water, petroleum ether and n-hexane”. Moreover, the “Solubility (soluble solvents)” value in [11] was “soluble in carbon tetrachloride”. Also, the Size of abscess in [12] (setting [17]) came to 0.64 mm^2. Moreover, the “Survival on 7th day (number of mice)” value in series [13] (setting [18]) was found to be 0; in series [13] (setting [19]) it was 3; in [13] (setting [20]), 5.
Turning to `CO[C@@H]1[C@@H](O[C@@H]2O[C@H](C)[C@@H](O[C@H]3C[C@@](C)(O)[C@@H](OC(=O)CC(C)C)[C@H](C)O3)[C@H](N(C)C)[C@H]2O)[C@@H](CC=O)C[C@@H](C)[C@@H](O)/C=C/C=C/C[C@@H](C)OC(=O)C[C@H]1OC(C)=O` [Josamycin], the MIC in series [1] is above 100 µg/mL; in series [2] it was 0.39 µg/mL; in series [3] it was 50 µg/mL; in [4] it was above 100 µg/mL; in [5], 0.78 µg/mL; in [6], 3.1 µg/mL. The MIC was above 100 µg/mL in series [7], 0.39 µg/mL in [8] and 0.39 µg/mL in series [9]. Besides, the “pKa'” value in [14] is listed as 7.1. Further, in [15], the “Solubility (easily soluble solvents)” value was “easily soluble in acidic water, methanol, ethanol, chloroform, ethyl acetate, and acetone”. Moreover, the “Solubility (slightly soluble solvents)” value in [15] was “slightly soluble in water, petroleum ether, ligroin, and n-hexane”. Also, the “Solubility (soluble solvents)” value in series [15] is “soluble in benzene, ether and carbon tetrachloride”. For the same molecule, the Size of abscess in [12] (50 mg/kg oral) is on record as 21.2 mm^2; in series [12] (setting [17]) it was 4.19 mm^2. Further, the “Inhibition of growth of resistant staphylococci” value in series [16] is “inhibits the growth”. In addition, the entries for the “Survival on 7th day (number of mice)” value in series [13] (setting [18]), in series [13] (setting [19]) and in series [13] (setting [20]) were 0, 2 and 5, respectively.
Take `COC1C(OC(C)=O)CC(=O)OC(C)C/C=C/C=C/C(O)C(C)CC(CC=O)C1OC1OC(C)C(OC2CC(C)(O)C(OC(=O)CC(C)C)C(C)O2)C(N(C)C)C1OC(C)=O` (centres unmarked) [Monoacetyl-josamycin-1, 2'-acetyl-josamycin]: the MIC in series [1] was above 100 µg/mL; in series [2], 0.39 µg/mL; in [3], 50 µg/mL; in [4], above 100 µg/mL; in series [5] it was 0.78 µg/mL; in [6] it was 3.1 µg/mL. Besides, the MIC in [7] is above 100 µg/mL; in series [8], 0.39 µg/mL; in [9] it was 0.39 µg/mL. Further, in series [10] (read-out: pKa'), the pKa is below 6. For the same molecule, the “Solubility (easily soluble solvents)” value in [11] was “easily soluble in acetone, methylethylketone, chloroform, ethyl acetate and benzene”. Further, the “Solubility (hardly soluble solvents)” value in [11] was “hardly soluble in water, petroleum ether and n-hexane”. In addition, the “Solubility (soluble solvents)” value in [11] was “soluble in methanol and ethanol”.
